# Reference: ChEMBL document CHEMBL1201862, “PubChem BioAssay data set” (2004)
# Active and inactive are the calls of the source.
# Experiments:
# [1] = blockers of HIV-1 envelope-mediated cell-cell fusion – cherry-pick, dose response (AID 652057); type: functional, cell-based
# [2] = blockers of HIV-1 ZM109 envelope-driven cell-cell fusion – HeLa effector, CEM target cells, luciferase, cherry-pick, dose response (AID 652058); type: functional, cell-based;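 also: luciferase signal from HIV-1 Env mediated cell-cell fusion of effector and target cells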
# [3] = HIV-1 AD8 envelope cell-cell fusion blockers – cherry-pick, dose response (AID 652062); type: functional, cell-based;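 also: luciferase signal from cell-cell fusion driven by HIV-1 clade B AD8 Env; potency is for inhibitors of fusion seen as a drop in luminescence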
# [4] = inhibition of Env-driven cell fusion – HIV entry, plate reader, dry powder, dose response (AID 687023); type: functional, cell-based
# [5] = tested on: Streptococcus sp. 'group A'; test: Streptococcus pyogenes SK(-)GAS viability under kanamycin – luminescence, BacTiterGlo, confirmation, counter-screen for streptokinase expression inhibitor project, dose response (AID 1900); type: functional, organism-based
# Streptokinase A = target: T1, Streptokinase A (Streptococcus pyogenes serotype M1, UniProt P10520); test: viability-normalized secreted streptokinase activity reduction – plasminogen activation absorbance, OD405, dose response (AID 1914); type: functional, Streptococcus pyogenes M1 GAS;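 also: secreted streptokinase activity via plasminogen activation per viability signal from cell pellet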
# T1 sequence (P10520 whole entry): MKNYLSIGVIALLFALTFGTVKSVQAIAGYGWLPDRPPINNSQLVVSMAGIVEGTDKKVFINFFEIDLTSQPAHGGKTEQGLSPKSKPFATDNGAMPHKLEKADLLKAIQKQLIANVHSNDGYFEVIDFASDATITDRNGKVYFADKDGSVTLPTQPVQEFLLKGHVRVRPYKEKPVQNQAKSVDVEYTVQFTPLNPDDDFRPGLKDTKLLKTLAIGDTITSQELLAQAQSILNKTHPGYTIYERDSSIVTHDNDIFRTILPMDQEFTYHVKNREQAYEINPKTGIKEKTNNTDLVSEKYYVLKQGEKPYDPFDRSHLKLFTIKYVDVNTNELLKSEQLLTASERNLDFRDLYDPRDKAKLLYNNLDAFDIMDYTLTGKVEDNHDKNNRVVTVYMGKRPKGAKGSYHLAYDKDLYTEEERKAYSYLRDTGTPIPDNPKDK
# Streptococcus = test: GAS UMAA2166 growth inhibition – luminescence, BacTiterGlo, counter-screen for streptokinase expression inhibitor project, dose response (AID 1915); type: functional, organism-based;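 also: potency for reduction of bacterial viability or growth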
# [6] = Luminescence Cell-Based Dose Retest to Confirm Inhibitors of Cancer Stem Cells. [Related pubchem assays (depositor defined):AID2717, AID2721]; type: functional; conditions: Homo sapiens
# [7] = target: T2, Methionyl-tRNA synthetase, putative (Trypanosoma brucei brucei, UniProt Q38C91); type: functional, Trypanosoma brucei brucei strain 927/4 GUTat10.1
# T2 sequence (Q38C91 whole entry): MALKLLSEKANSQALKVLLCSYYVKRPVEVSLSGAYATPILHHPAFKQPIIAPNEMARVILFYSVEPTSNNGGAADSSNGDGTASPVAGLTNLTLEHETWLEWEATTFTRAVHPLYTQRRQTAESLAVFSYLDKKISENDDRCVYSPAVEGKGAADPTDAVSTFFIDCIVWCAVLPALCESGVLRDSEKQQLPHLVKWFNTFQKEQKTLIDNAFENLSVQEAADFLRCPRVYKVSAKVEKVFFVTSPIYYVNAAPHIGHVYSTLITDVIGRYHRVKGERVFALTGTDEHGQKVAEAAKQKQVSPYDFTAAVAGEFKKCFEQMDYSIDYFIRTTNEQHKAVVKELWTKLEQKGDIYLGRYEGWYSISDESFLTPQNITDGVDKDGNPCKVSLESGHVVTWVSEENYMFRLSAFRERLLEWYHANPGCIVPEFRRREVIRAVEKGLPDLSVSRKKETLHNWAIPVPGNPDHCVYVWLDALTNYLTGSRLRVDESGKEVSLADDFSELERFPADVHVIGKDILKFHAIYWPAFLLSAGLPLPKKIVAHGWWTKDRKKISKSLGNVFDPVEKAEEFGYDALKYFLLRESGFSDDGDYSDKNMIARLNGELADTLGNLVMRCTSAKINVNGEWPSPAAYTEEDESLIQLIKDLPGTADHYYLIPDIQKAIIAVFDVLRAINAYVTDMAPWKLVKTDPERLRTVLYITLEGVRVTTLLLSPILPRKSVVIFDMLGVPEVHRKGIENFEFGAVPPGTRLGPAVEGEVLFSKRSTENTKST
# [8] = Counterscreen for inhibitors of Trypanosoma brucei methionyl tRNA synthetase (MetRS): Luminescence-based cell-based high throughput dose response assay to identify compounds that are cytotoxic to Jurkat human T lymphocyte cells.; type: functional
# [9] = target: T2, Methionyl-tRNA synthetase, putative; type: functional, Trypanosoma brucei brucei strain 927/4 GUTat10.1; remark: listed apart in the source
# [10] = Late stage counterscreen for inhibitors of Trypanosoma brucei methionyl tRNA synthetase (MetRS): Luminescence-based cell-based high throughput dose response assay to identify compounds that are cytotoxic to Jurkat human T lymphocyte cells.; type: functional
# Cytochrome P450 2D6 = Cytochrome P450 2D6 (Homo sapiens, UniProt P10635);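 also: CYP2D6 member of a cytochrome P450 panel assay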
# Cytochrome P450 2D6, sequence (P10635 whole entry): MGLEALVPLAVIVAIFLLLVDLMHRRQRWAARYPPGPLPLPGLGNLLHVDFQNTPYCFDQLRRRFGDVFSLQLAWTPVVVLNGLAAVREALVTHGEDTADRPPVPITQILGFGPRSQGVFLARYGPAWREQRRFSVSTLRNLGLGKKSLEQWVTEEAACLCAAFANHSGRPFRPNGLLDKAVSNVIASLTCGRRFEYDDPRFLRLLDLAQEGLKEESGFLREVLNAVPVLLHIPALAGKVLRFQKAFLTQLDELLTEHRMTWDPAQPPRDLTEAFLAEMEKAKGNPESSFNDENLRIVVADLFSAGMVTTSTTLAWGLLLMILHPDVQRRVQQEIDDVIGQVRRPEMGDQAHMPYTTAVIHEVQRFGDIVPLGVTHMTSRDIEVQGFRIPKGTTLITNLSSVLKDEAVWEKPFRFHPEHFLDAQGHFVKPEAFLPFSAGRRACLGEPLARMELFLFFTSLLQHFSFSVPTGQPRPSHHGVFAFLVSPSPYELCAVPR
# [11] = target: Beta-2 adrenergic receptor (Homo sapiens, UniProt P07550); test: ADRB2 activation measured by internalization – cell-based, FAP fluorogen, flow cytometry, cherry pick 1, dose response (AID 588763); type: functional
# Beta-2 adrenergic receptor, sequence (P07550 whole entry): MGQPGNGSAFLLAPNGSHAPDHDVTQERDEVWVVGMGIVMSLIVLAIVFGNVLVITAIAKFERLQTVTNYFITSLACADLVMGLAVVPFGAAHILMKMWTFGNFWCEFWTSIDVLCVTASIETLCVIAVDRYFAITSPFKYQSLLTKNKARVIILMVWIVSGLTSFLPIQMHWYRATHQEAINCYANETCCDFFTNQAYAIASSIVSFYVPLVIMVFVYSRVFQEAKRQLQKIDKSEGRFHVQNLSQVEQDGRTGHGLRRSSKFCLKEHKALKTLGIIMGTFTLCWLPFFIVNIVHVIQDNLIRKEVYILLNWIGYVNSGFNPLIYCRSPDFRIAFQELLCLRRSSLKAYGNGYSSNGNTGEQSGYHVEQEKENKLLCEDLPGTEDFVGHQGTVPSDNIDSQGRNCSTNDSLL
# [12] = reduction of Shn3 3'UTR-driven luciferase in osteoblasts – cell-based, Clone20 osteoblasts, firefly luciferase, cherry-picked, dose response (AID 624132); type: functional;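 also: firefly luciferase luminescence from reporter carrying the Shn3 3'UTR in osteoblasts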
# [13] = loss of viability in HepG2 cells – cell-based, CellTiter-Glo, cherry-picked, cytotoxicity control for Shn3 inhibitor project, dose response (AID 624134); type: functional
# [14] = non-specific 3'UTR reporter inhibition in Clone20-Shn3RL – cell-based, Renilla luciferase, cherry-picked, counter-screen for Shn3 inhibitor project, dose response (AID 624133); type: functional
# Paired box protein Pax-8 = Paired box protein Pax-8 (Homo sapiens, UniProt Q06710); test: PAX8 transcriptional activity inhibition in RMG-I – RMG-I cells, luciferase, cherry-pick, dose response (AID 687027); type: functional, cell-based;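 also: luciferase reporter driven by Pax8 target thyroperoxidase promoter measured by SteadyGlo luminescence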
# Paired box protein Pax-8, sequence (Q06710 whole entry): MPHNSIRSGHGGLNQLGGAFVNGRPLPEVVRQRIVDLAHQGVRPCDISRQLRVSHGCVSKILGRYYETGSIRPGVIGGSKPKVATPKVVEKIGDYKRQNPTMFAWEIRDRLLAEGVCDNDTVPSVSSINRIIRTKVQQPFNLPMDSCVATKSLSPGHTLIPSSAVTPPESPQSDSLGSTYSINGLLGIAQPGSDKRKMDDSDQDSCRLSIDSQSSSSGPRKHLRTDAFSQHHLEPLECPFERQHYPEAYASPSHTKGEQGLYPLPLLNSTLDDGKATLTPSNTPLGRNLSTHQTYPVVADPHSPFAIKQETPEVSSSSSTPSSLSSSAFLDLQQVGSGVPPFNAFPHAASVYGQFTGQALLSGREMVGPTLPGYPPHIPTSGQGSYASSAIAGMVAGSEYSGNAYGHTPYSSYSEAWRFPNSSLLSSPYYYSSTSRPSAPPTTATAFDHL
# [15] = Shn3 transcript knock-down in Clone20 cells – cell-based, qPCR, cherry-pick, dose response (AID 743415); type: functional
# [16] = Shn3 3'UTR reporter signal decrease – cell-based, Clone20 osteoblasts, firefly luciferase, cherry-pick, set 2, Schnurri-3 inhibitor project, dose response (AID 720490); type: functional;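 also: actives lower the luminescence signal as inhibitors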
# [17] = A549 cell cytotoxicity, dose response, cytotoxicity control, plate reader, cherry-pick, antagonist series (AID 743412); type: functional, cell-based
# [18] = toxicity toward HepG2 liver cells – cell-based, plate reader, cherry-pick, antagonist series, cytotoxicity control, dose response (AID 743416); type: functional
# [19] = EF1alpha-driven Renilla reporter with control 3'UTR suppression – Clone20-Shn3RL cells, dual-Glo, cherry-pick, set 2, counter-screen for Shn3 3'UTR targeting project, dose response (AID 720724); type: functional, cell-based; conditions: Dual-Go Shn3RL
# [20] = blockers of bursicon-stimulated LGR2 cAMP reporter – cell-based, HEK293, CRE-luciferase reporter, cherry pick, set 2, dose response (AID 743343); type: functional;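 also: transfected cells were stimulated with diluted bursicon conditioned medium after compound addition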
# [21] = blockade of melanocortin 4 receptor signaling – cell-based, plate reader, cherry pick, counter-screen for LGR2 antagonist project, dose response (AID 743444); type: functional;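 also: transfected HEK 293 cells stimulated with alpha-MSH peptide; potency of inhibitors of the alpha-MSH evoked signal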
# [22] = viability loss in HEK293 cells – cell-based, plate reader, cherry-picked samples, cytotoxicity control, dose response (AID 743446); type: functional
# [23] = cytotoxicity in MITF-independent A375 cells – cell-based, CellTiter-Glo luminescence, dry powder, set 4, counter-screen for MITF inhibitor project, dose response (AID 624364); type: functional; conditions: A-375;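 also: A375 melanoma cells are MITF independent so this is a counter screen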
# [24] = viability loss in MITF-independent A375 cells – cell-based, CellTiter-Glo luminescence, dry powder, set 2, counter-screen for MITF inhibitor project, dose response (AID 624489); type: functional; conditions: A-375;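 also: actives are compounds lowering A375 viability meaning general cytotoxicity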
# [25] = target: Induced myeloid leukemia cell differentiation protein Mcl-1 (Homo sapiens, UniProt Q07820); type: functional
# Induced myeloid leukemia cell differentiation protein Mcl-1, sequence (Q07820 whole entry): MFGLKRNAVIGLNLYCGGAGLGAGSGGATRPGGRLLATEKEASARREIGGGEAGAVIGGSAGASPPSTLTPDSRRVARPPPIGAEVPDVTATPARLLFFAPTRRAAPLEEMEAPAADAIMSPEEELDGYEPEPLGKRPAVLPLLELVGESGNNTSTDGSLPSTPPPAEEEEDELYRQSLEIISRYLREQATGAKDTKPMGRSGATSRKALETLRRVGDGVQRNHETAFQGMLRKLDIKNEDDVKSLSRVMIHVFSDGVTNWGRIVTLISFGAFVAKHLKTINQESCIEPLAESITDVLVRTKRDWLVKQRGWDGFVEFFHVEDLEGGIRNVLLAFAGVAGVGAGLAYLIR
# [26] = target: T3, Polyadenylate-binding protein 1 (Homo sapiens, UniProt P11940); test: MLLE binding blockers, Cy5 peptide tracer – biochemical, fluorescence polarization, Cy5-PAM2 peptide, secondary, miRNA deadenylation inhibitor project, dose response (AID 602260); type: functional; conditions: read-out: IC50_Mean
# T3 sequence (P11940 whole entry, the tested form may be a part): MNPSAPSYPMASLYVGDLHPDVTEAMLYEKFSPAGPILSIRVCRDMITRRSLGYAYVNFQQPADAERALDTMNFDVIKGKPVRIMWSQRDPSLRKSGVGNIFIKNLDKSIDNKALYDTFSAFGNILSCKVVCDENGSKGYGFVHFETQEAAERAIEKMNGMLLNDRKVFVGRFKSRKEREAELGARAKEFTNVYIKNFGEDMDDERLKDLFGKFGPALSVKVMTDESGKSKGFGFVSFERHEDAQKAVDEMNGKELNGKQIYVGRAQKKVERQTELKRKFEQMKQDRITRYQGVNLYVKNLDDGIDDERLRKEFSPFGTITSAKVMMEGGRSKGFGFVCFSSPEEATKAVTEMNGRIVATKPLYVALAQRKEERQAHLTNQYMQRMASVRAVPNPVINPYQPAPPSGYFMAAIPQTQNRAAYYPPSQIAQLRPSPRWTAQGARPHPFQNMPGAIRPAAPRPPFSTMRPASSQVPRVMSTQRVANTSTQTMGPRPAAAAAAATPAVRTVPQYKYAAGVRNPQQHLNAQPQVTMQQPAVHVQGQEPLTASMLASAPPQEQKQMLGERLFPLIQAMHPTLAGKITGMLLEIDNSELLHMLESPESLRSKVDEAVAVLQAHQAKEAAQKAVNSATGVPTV
# [27] = target: T3, Polyadenylate-binding protein 1; test: MLLE domain peptide-binding blockers, IC50 – biochemical, fluorescence polarization, FITC-PAM2 peptide, dose response (AID 602259); type: functional; conditions: read-out: IC50_Mean
# [28] = target: T4, Rac GTPase-activating protein 1 (Homo sapiens, UniProt Q9H0H5); test: blockers of MgcRacGAP-driven Rac1 GTP hydrolysis – biochemical, ADP Hunter fluorescence, primary and confirmatory, confirmation (AID 624330); type: functional
# T4 sequence (Q9H0H5 whole entry): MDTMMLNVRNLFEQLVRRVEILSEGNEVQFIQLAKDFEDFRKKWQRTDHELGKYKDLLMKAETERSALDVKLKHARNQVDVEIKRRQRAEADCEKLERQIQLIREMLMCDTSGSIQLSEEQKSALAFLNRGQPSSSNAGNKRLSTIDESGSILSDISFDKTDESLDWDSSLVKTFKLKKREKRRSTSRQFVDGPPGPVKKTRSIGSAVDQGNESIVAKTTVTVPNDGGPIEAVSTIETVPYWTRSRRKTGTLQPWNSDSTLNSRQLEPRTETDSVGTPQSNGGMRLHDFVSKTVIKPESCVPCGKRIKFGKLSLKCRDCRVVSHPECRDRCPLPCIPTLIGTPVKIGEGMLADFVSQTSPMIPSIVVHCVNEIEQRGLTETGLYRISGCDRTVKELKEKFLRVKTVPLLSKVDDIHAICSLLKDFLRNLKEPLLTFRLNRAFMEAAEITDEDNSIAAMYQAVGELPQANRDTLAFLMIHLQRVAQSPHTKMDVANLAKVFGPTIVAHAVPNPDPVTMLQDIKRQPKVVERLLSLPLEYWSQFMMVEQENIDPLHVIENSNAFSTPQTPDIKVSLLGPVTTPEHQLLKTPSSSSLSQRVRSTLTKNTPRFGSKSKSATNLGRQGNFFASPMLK
# [29] = IC50 of Artemis nuclease activity blockers – biochemical, fluorescence intensity, dose response (AID 720701); type: functional;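 also: Artemis endonuclease enzyme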
# [30] = target: Glutathione-S-transferase (Schistosoma japonicum, UniProt Q26513); test: GST-antibody interaction or FRET quenching – biochemical, TR-FRET, artefact control for Vif-APOBEC3G degradation inhibitor project, dose response (AID 1117362); type: functional
# Glutathione-S-transferase, sequence (Q26513 whole entry): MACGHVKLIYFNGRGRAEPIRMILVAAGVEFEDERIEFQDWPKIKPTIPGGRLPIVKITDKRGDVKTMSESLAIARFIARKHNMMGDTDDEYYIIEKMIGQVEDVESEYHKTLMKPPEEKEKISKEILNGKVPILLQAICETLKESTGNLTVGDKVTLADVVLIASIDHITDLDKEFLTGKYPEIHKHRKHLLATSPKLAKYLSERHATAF
# [31] = target: T5, NAD-dependent protein deacylase sirtuin-5, mitochondrial (Homo sapiens, UniProt Q9NXA8); test: sirtuin-5 deacylation blockers, concentration series – biochemical, fluorescence imaging, cherry-pick, set 5, dose response (AID 720591);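 also: desuccinylation of succinyl peptide AMC substrate read as fluorescence after trypsin release; potency of inhibitors that lower fluorescence and may act on trypsin instead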
# T5 sequence (Q9NXA8 whole entry): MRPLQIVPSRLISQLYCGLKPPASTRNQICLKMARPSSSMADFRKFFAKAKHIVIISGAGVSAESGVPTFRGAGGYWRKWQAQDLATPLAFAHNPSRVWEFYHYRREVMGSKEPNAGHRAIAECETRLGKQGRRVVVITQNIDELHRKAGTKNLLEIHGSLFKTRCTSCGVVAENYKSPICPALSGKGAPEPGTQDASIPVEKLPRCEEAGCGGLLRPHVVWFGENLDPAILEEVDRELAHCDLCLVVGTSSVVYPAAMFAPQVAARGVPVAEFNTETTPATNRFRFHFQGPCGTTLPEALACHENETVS
# [32] = target: T5, NAD-dependent protein deacylase sirtuin-5, mitochondrial; test: blockers of sirtuin-5 peptide desuccinylation – biochemical, fluorescence imaging, cherry-pick, set 6, dose response (AID 720597)
compound,measurement,setting,value
Cn1c(C(=O)N2CCN(c3nc4ccccc4s3)CC2)cc2sccc21,AC50,[1],3.01 µM (active)
same,AC50,[2],4.97 µM (active)
same,AC50,[3],16.4 µM (active)
same,AC50,[4],8.02 µM (active)
O=C(NNC(=O)c1cc(-c2ccc(Cl)c(Cl)c2)nc2ccccc12)Nc1ccccc1,EC50,[5],4.69 µM (active)
same,EC50,Streptokinase A,> 150 µM (not active)
same,EC50,Streptococcus,13.7 µM (active)
same,AC50,[6],4.94 µM (active)
same,IC50,[7],3.12 µM (active)
same,IC50,[8],34.2 µM (inactive)
same,IC50,[9],1.64 µM (active)
same,IC50,[10],22.4 µM (inactive)
same,AC50,Cytochrome P450 2D6,20 µM (inconclusive)
Cn1nnnc1Sc1ncnc2scc(-c3ccc(Br)cc3)c12,EC50,[11],8.44 µM (active)
same,AC50,[12],0.334 µM (active)
same,AC50,[13],19.2 µM (active)
same,AC50,[14],14.4 µM (active)
same,AC50,Paired box protein Pax-8,3.56 µM (active)
same,AC50,[15],17.6 µM (active)
same,AC50,[16],5.82 µM (active)
same,AC50,[17],6.82 µM (active)
same,AC50,[18],7.97 µM (active)
same,AC50,[19],5.09 µM (active)
same,AC50,[20],8.94 µM (active)
same,AC50,[21],15.6 µM (active)
same,AC50,[22],11.2 µM (active)
C=C1C(=O)OC2C1CC/C(C)=C\CCC1(C)OC21 (stereo unspecified),AC50,[23],> 70 µM (inactive)
same,AC50,[24],43.9 µM (active)
COc1ccc2c3c(cccc13)N(C)N=C2C,IC50,[25],1.33 µM (active)
same,IC50,[26],> 66 µM (inactive)
same,IC50,[27],> 66 µM (inactive)
same,IC50,[28],34.4 µM (active)
same,IC50,[29],> 20 µM (inactive)
same,IC50,[30],36.6 µM (active)
CC(C)C[C@H](NS(=O)(=O)c1ccc(F)cc1F)C(=O)N1CCC[C@H]1C(=O)NCc1ccccc1,AC50,[31],15.3 µM (active)
O=C(O)CCNc1ncnc2ccccc12,AC50,[32],> 30 µM (inactive)
